Activity calls are given as the source filed them. No rule for the calls is given here.
System: rodent lifetime carcinogenesis bioassay, tumor incidence TD50
Assay: carcinogenic potency in animals, long-term in vivo studies, CPDB compilation (AID 1745844)

`COc1ccc(N)cc1N` was tested, and the TD50 (mouse, strain B6C3F1, females, in feed, site: all sites, lesion: lymphoma, dosed 78 weeks, study length 96 weeks) was 262 mg/kg/day, the TD50 (mouse, strain B6C3F1, females, in feed, site: any site (literature study), lesion: several types, types named in the paper, dosed 78 weeks, study length 96 weeks) was 311 mg/kg/day and the TD50 (mouse, strain B6C3F1, females, in feed, site: liver, lesion: hepatocellular adenoma + hepatocellular carcinoma + neoplastic nodule, dosed 78 weeks, study length 96 weeks) was 7350 mg/kg/day. For the same molecule, the TD50 (mouse, strain B6C3F1, females, in feed, site: lung, lesion: alveolar/bronchiolar adenoma + alveolar/bronchiolar carcinoma, dosed 78 weeks, study length 96 weeks) was 10900 mg/kg/day, the TD50 (mouse, strain B6C3F1, females, in feed, site: thyroid gland, lesion: follicular-cell adenoma + follicular-cell carcinoma, dosed 78 weeks, study length 96 weeks) was 1060 mg/kg/day and the TD50 (mouse, strain B6C3F1, females, in feed, site: thyroid gland, lesion: follicular-cell adenoma, dosed 78 weeks, study length 96 weeks) was 1450 mg/kg/day. For the same molecule, the TD50 (mouse, strain B6C3F1, males, in feed, site: any site (literature study), lesion: several types, types named in the paper, dosed 78 weeks, study length 96 weeks) was 354 mg/kg/day, the TD50 (mouse, strain B6C3F1, males, in feed, site: liver, lesion: hepatocellular adenoma + hepatocellular carcinoma + neoplastic nodule, dosed 78 weeks, study length 96 weeks) was 926 mg/kg/day and the TD50 (mouse, strain B6C3F1, males, in feed, site: lung, lesion: alveolar/bronchiolar adenoma + alveolar/bronchiolar carcinoma, dosed 78 weeks, study length 96 weeks) was 2560 mg/kg/day. For the same molecule, the TD50 (mouse, strain B6C3F1, males, in feed, site: thyroid gland, lesion: follicular-cell adenoma, dosed 78 weeks, study length 96 weeks) was 791 mg/kg/day, the TD50 (rat, strain Fischer 344, females, in feed, site: Zymbal's gland, lesion: sebaceous adenocarcinoma, dosed 78 weeks, study length 107 weeks) was 665 mg/kg/day and the TD50 (rat, strain Fischer 344, females, in feed, site: any site (literature study), lesion: several types, types named in the paper, dosed 78 weeks, study length 107 weeks) was 181 mg/kg/day. It also gave a TD50 (rat, strain Fischer 344, females, in feed, site: any site (literature study), lesion: several types, types named in the paper, dosed 83 weeks, study length 86 weeks) of 67.3 mg/kg/day, a TD50 (rat, strain Fischer 344, females, in feed, site: clitoral gland + uterus, endometrium, lesion: carcinoma, NOS + adenocarcinoma, NOS + papillary carcinoma, dosed 78 weeks, study length 107 weeks) of 408 mg/kg/day and a TD50 (rat, strain Fischer 344, females, in feed, site: clitoral gland, lesion: adenoma, NOS + carcinoma, NOS + cystadenoma, NOS + squamous-cell carcinoma + squamous-cell papilloma, dosed 78 weeks, study length 107 weeks) of 416 mg/kg/day. The TD50 (rat, strain Fischer 344, females, in feed, site: clitoral gland, lesion: several types, types named in the paper, dosed 83 weeks, study length 86 weeks) was 113 mg/kg/day, the TD50 (rat, strain Fischer 344, females, in feed, site: clitoral gland, lesion: squamous-cell carcinoma, sebaceous, dosed 83 weeks, study length 86 weeks) was 162 mg/kg/day and the TD50 (rat, strain Fischer 344, females, in feed, site: liver, lesion: hepatocellular adenoma + hepatocellular carcinoma + neoplastic nodule, dosed 78 weeks, study length 107 weeks) was 14500 mg/kg/day. It also gave a TD50 (rat, strain Fischer 344, females, in feed, site: mammary gland, lesion: several types, types named in the paper, dosed 83 weeks, study length 86 weeks) of 1290 mg/kg/day, a TD50 (rat, strain Fischer 344, females, in feed, site: thyroid gland + Zymbal's gland, lesion: adenocarcinoma, NOS + follicular-cell carcinoma + papillary cystadenocarcinoma, NOS + sebaceous adenocarcinoma, dosed 78 weeks, study length 107 weeks) of 301 mg/kg/day and a TD50 (rat, strain Fischer 344, females, in feed, site: thyroid gland, lesion: adenocarcinoma, NOS + follicular-cell carcinoma + papillary cystadenocarcinoma, NOS, dosed 78 weeks, study length 107 weeks) of 425 mg/kg/day. It also gave a TD50 (rat, strain Fischer 344, females, in feed, site: thyroid gland, lesion: follicular-cell adenoma, dosed 83 weeks, study length 86 weeks) of 296 mg/kg/day, a TD50 (rat, strain Fischer 344, females, in feed, site: thyroid gland, lesion: several types, types named in the paper, dosed 83 weeks, study length 86 weeks) of 162 mg/kg/day and a TD50 (rat, strain Fischer 344, males, in feed, site: any site (literature study), lesion: several types, types named in the paper, dosed 78 weeks, study length 107 weeks) of 135 mg/kg/day. For the same molecule, the TD50 (rat, strain Fischer 344, males, in feed, site: ear canal + ear + Zymbal's gland, lesion: sebaceous adenocarcinoma + squamous-cell carcinoma, dosed 78 weeks, study length 107 weeks) was 709 mg/kg/day, the TD50 (rat, strain Fischer 344, males, in feed, site: ear canal + ear + preputial gland + skin + thyroid gland + Zymbal's gland, lesion: sebaceous adenocarcinoma + squamous-cell carcinoma + adenoma, NOS + carcinoma, NOS + cystadenoma, NOS + papillary adenoma + basal-ce, dosed 78 weeks, study length 107 weeks) was 72.6 mg/kg/day and the TD50 (rat, strain Fischer 344, males, in feed, site: liver, lesion: hepatocellular adenoma + hepatocellular carcinoma + neoplastic nodule, dosed 78 weeks, study length 107 weeks) was 1610 mg/kg/day. The TD50 (rat, strain Fischer 344, males, in feed, site: preputial gland, lesion: adenoma, NOS + carcinoma, NOS + cystadenoma, NOS + papillary adenoma, dosed 78 weeks, study length 107 weeks) was 351 mg/kg/day, the TD50 (rat, strain Fischer 344, males, in feed, site: preputial gland, lesion: adenoma, NOS + cystadenoma, NOS + papillary adenoma, dosed 78 weeks, study length 107 weeks) was 530 mg/kg/day and the TD50 (rat, strain Fischer 344, males, in feed, site: skin, lesion: basal-cell carcinoma + sebaceous adenocarcinoma + squamous-cell carcinoma, dosed 78 weeks, study length 107 weeks) was 358 mg/kg/day. For the same molecule, the TD50 (rat, strain Fischer 344, males, in feed, site: thyroid gland, lesion: adenocarcinoma, NOS + follicular-cell carcinoma + papillary adenocarcinoma + papillary cystadenocarcinoma, NOS, dosed 78 weeks, study length 107 weeks) was 192 mg/kg/day, the TD50 (rat, strain Fischer 344, males, in feed, site: thyroid gland, lesion: adenocarcinoma, NOS, dosed 78 weeks, study length 107 weeks) was 252 mg/kg/day and the TD50 (rat, strain Fischer 344, males, in feed, site: thyroid gland, lesion: c-cell adenoma + c-cell carcinoma, dosed 78 weeks, study length 107 weeks) was 319 mg/kg/day.
For `C=CCOC(=O)c1ccccc1C(=O)OCC=C`, the TD50 (mouse, strain B6C3F1, females, by gavage, site: any site (literature study), lesion: several types, types named in the paper, dosed 103 weeks, study length 106 weeks) was 10100 mg/kg/day, the TD50 (mouse, strain B6C3F1, females, by gavage, site: forestomach, lesion: papilloma, NOS, dosed 103 weeks, study length 106 weeks) was 2730 mg/kg/day and the TD50 (mouse, strain B6C3F1, females, by gavage, site: liver, lesion: hepatocellular adenoma + hepatocellular carcinoma + neoplastic nodule, dosed 103 weeks, study length 106 weeks) was 2930 mg/kg/day. For the same molecule, the TD50 (mouse, strain B6C3F1, females, by gavage, site: lung, lesion: alveolar/bronchiolar adenoma + alveolar/bronchiolar carcinoma, dosed 103 weeks, study length 106 weeks) was 4180 mg/kg/day, the TD50 (mouse, strain B6C3F1, males, by gavage, site: all sites, lesion: malignant lymphoma, NOS, dosed 103 weeks, study length 106 weeks) was 816 mg/kg/day and the TD50 (mouse, strain B6C3F1, males, by gavage, site: any site (literature study), lesion: several types, types named in the paper, dosed 103 weeks, study length 106 weeks) was 717 mg/kg/day. For the same molecule, the TD50 (mouse, strain B6C3F1, males, by gavage, site: forestomach, lesion: papilloma, NOS, dosed 103 weeks, study length 106 weeks) was 2460 mg/kg/day, the TD50 (mouse, strain B6C3F1, males, by gavage, site: liver, lesion: hepatocellular adenoma + hepatocellular carcinoma + neoplastic nodule, dosed 103 weeks, study length 106 weeks) was 6680 mg/kg/day and the TD50 (mouse, strain B6C3F1, males, by gavage, site: liver, lesion: hepatocellular adenoma, dosed 103 weeks, study length 106 weeks) was 2450 mg/kg/day. It also gave a TD50 (mouse, strain B6C3F1, males, by gavage, site: lung, lesion: alveolar/bronchiolar adenoma + alveolar/bronchiolar carcinoma, dosed 103 weeks, study length 106 weeks) of 8520 mg/kg/day, a TD50 (rat, strain Fischer 344, females, by gavage, site: all sites, lesion: mononuclear-cell leukemia, dosed 103 weeks, study length 104 weeks) of 138 mg/kg/day and a TD50 (rat, strain Fischer 344, females, by gavage, site: any site (literature study), lesion: several types, types named in the paper, dosed 103 weeks, study length 104 weeks) of 163 mg/kg/day. The TD50 (rat, strain Fischer 344, males, by gavage, site: any site (literature study), lesion: several types, types named in the paper, dosed 103 weeks, study length 104 weeks) was 2990 mg/kg/day (inactive).
In the case of `CC[N+](=O)[O-]`, the TD50 (rat, strain Long-Evans BLU:(LE), females, inhaled, site: liver, lesion: hepatocellular carcinoma, dosed 105 weeks, study length 105 weeks) is reported as 2190 mg/kg/day (inactive) and the carcinogen call (rat, strain Long-Evans BLU:(LE), males, inhaled, site: liver, lesion: one or several types, types not named, dosed 105 weeks, study length 105 weeks) is reported as “negative (inactive)”.
`C=CF` was tested, and the TD50 (mouse, strain Charles River CD1, females, inhaled, site: Harderian gland, lesion: adenoma, dosed 67 weeks, study length 74 weeks) was 4010 mg/kg/day, the TD50 (mouse, strain Charles River CD1, females, inhaled, site: liver, lesion: hemangiosarcoma, dosed 67 weeks, study length 74 weeks) was 25.4 mg/kg/day and the TD50 (mouse, strain Charles River CD1, females, inhaled, site: lung, lesion: alveolar/bronchiolar adenoma, dosed 67 weeks, study length 74 weeks) was 54.6 mg/kg/day. It also gave a TD50 (mouse, strain Charles River CD1, females, inhaled, site: lung, lesion: several types, types named in the paper, dosed 67 weeks, study length 74 weeks) of 54.6 mg/kg/day, a TD50 (mouse, strain Charles River CD1, females, inhaled, site: mammary gland, lesion: adenocarcinoma, dosed 67 weeks, study length 74 weeks) of 13.6 mg/kg/day and a TD50 (mouse, strain Charles River CD1, females, inhaled, site: mammary gland, lesion: several types, types named in the paper, dosed 67 weeks, study length 74 weeks) of 13.6 mg/kg/day. For the same molecule, the TD50 (mouse, strain Charles River CD1, males, inhaled, site: Harderian gland, lesion: adenoma, dosed 63 weeks, study length 78 weeks) was 1000 mg/kg/day, the TD50 (mouse, strain Charles River CD1, males, inhaled, site: liver, lesion: hemangiosarcoma, dosed 63 weeks, study length 78 weeks) was 19.4 mg/kg/day and the TD50 (mouse, strain Charles River CD1, males, inhaled, site: liver, lesion: hepatocellular adenoma, dosed 63 weeks, study length 78 weeks) was 34.6 mg/kg/day. For the same molecule, the TD50 (mouse, strain Charles River CD1, males, inhaled, site: lung, lesion: alveolar/bronchiolar adenocarcinoma, dosed 63 weeks, study length 78 weeks) was 12300 mg/kg/day, the TD50 (mouse, strain Charles River CD1, males, inhaled, site: lung, lesion: alveolar/bronchiolar adenoma, dosed 63 weeks, study length 78 weeks) was 5.78 mg/kg/day and the TD50 (mouse, strain Charles River CD1, males, inhaled, site: lung, lesion: several types, types named in the paper, dosed 63 weeks, study length 78 weeks) was 5.78 mg/kg/day. The TD50 (rat, strain Charles River CD (Sprague-Dawley), females, inhaled, site: Zymbal's gland, lesion: squamous-cell carcinoma, sebaceous, dosed 52 weeks, study length 52 weeks) was 639 mg/kg/day, the TD50 (rat, strain Charles River CD (Sprague-Dawley), females, inhaled, site: Zymbal's gland, lesion: squamous-cell carcinoma, sebaceous, dosed 78 weeks, study length 78 weeks) was 684 mg/kg/day and the TD50 (rat, strain Charles River CD (Sprague-Dawley), females, inhaled, site: Zymbal's gland, lesion: squamous-cell carcinoma, sebaceous, dosed 93 weeks, study length 103 weeks) was 1470 mg/kg/day. It also gave a TD50 (rat, strain Charles River CD (Sprague-Dawley), females, inhaled, site: liver, lesion: hemangiosarcoma, dosed 93 weeks, study length 103 weeks) of 16.6 mg/kg/day, a TD50 (rat, strain Charles River CD (Sprague-Dawley), females, inhaled, site: liver, lesion: hepatocellular adenoma, dosed 93 weeks, study length 103 weeks) of 183 mg/kg/day and a TD50 (rat, strain Charles River CD (Sprague-Dawley), females, inhaled, site: liver, lesion: hepatocellular carcinoma, dosed 78 weeks, study length 78 weeks) of 1440 mg/kg/day. For the same molecule, the TD50 (rat, strain Charles River CD (Sprague-Dawley), females, inhaled, site: liver, lesion: hepatocellular carcinoma, dosed 93 weeks, study length 103 weeks) was 7770 mg/kg/day, the TD50 (rat, strain Charles River CD (Sprague-Dawley), females, inhaled, site: liver, lesion: several types, types named in the paper, dosed 78 weeks, study length 78 weeks) was 7380 mg/kg/day and the TD50 (rat, strain Charles River CD (Sprague-Dawley), females, inhaled, site: liver, lesion: several types, types named in the paper, dosed 93 weeks, study length 103 weeks) was 183 mg/kg/day. The TD50 (rat, strain Charles River CD (Sprague-Dawley), males, inhaled, site: Zymbal's gland, lesion: squamous-cell carcinoma, sebaceous, dosed 52 weeks, study length 52 weeks) was 213 mg/kg/day, the TD50 (rat, strain Charles River CD (Sprague-Dawley), males, inhaled, site: Zymbal's gland, lesion: squamous-cell carcinoma, sebaceous, dosed 93 weeks, study length 103 weeks) was 1090 mg/kg/day and the TD50 (rat, strain Charles River CD (Sprague-Dawley), males, inhaled, site: liver, lesion: hemangiosarcoma, dosed 93 weeks, study length 103 weeks) was 25 mg/kg/day. The TD50 (rat, strain Charles River CD (Sprague-Dawley), males, inhaled, site: liver, lesion: hepatocellular adenoma, dosed 93 weeks, study length 103 weeks) was 200 mg/kg/day.

From PubChem BioAssay AID1745844 (Carcinogenic Potency Database (CPDB), 2022)
